Results published in article PMC5218480 (PLoS ONE, 2017).

Tested on: MV-4-11 cells
Assay: Gene expression microarray analysis (Affymetrix PrimeView) and GSEA
Type: cell-based, human
Design: RFU PODN (11730768_x_at) / Fold change /veh PODN (11730768_x_at) / RFU LINC00158 (11744669_a_at) / Fold change /veh LINC00158 (11744669_a_at) / RFU DUSP10 (11751237_a_at) / Fold change /veh DUSP10 (11751237_a_at) / RFU ID3 (11757404_x_at) / Fold change /veh ID3 (11757404_x_at) / RFU PLEKHG5 (11737974_s_at) / Fold change /veh PLEKHG5 (11737974_s_at) / RFU LRRC4B (11730491_at) / Fold change /veh LRRC4B (11730491_at) / RFU GIMAP4 (11747438_a_at) / Fold change /veh GIMAP4 (11747438_a_at) / RFU KRT8 (11758183_x_at) / Fold change /veh KRT8 (11758183_x_at) / RFU CNN1 (11734310_a_at) / Fold change /veh CNN1 (11734310_a_at) / RFU VPS37D (11726825_at) / Fold change /veh VPS37D (11726825_at) / RFU C10orf10 (11716522_x_at) / Fold change /veh C10orf10 (11716522_x_at) / RFU KIR2DL2 /// KIR2DL4 /// KIR2DL5A /// KIR2DL5B /// KIR2DS1 /// KIR2DS2 /// KIR2DS3 /// KIR2DS4 /// KIR3DL3 /// KIR3DL3 /// KIR3DS1 (11738374_at) / Fold change /veh KIR2DL2 /// KIR2DL4 /// KIR2DL5A /// KIR2DL5B /// KIR2DS1 /// KIR2DS2 /// KIR2DS3 /// KIR2DS4 /// KIR3DL3 /// KIR3DL3 /// KIR3DS1 (11738374_at) / RFU C1QL1 (11718748_at) / Fold change /veh C1QL1 (11718748_at) / RFU TMPRSS4 (11747572_a_at) / Fold change /veh TMPRSS4 (11747572_a_at) / RFU HAMP (11756126_x_at) / Fold change /veh HAMP (11756126_x_at) / RFU RNFT2 (11725882_a_at) / Fold change /veh RNFT2 (11725882_a_at) / RFU NR4A2 (11747474_a_at) / Fold change /veh NR4A2 (11747474_a_at) / RFU ABCC12 (11746883_a_at) / Fold change /veh ABCC12 (11746883_a_at) / RFU TMEM136 (11760407_x_at) / Fold change /veh TMEM136 (11760407_x_at) / RFU CLDN22 /// WWC2 (11732394_at) / Fold change /veh CLDN22 /// WWC2 (11732394_at) / RFU HLA-DPB1 (11760878_x_at) / Fold change /veh HLA-DPB1 (11760878_x_at) / RFU SPINT1 (11716480_a_at) / Fold change /veh SPINT1 (11716480_a_at) / RFU GAP43 (11754022_s_at) / Fold change /veh GAP43 (11754022_s_at) / RFU A4GNT (11735810_at) / Fold change /veh A4GNT (11735810_at) / RFU PRB3 (11715151_x_at) / Fold change /veh PRB3 (11715151_x_at) / RFU TUBB4B (11761932_at) / Fold change /veh TUBB4B (11761932_at) / RFU CAPN14 (11732068_a_at) / Fold change /veh CAPN14 (11732068_a_at) / RFU TMCC2 (11721928_a_at) / Fold change /veh TMCC2 (11721928_a_at) / RFU IRGQ (11745062_a_at) / Fold change /veh IRGQ (11745062_a_at) / RFU FAM174B (11720279_a_at) / Fold change /veh FAM174B (11720279_a_at) / RFU TMPRSS4 (11748680_a_at) / Fold change /veh TMPRSS4 (11748680_a_at) / RFU FAM212B (11763350_a_at) / Fold change /veh FAM212B (11763350_a_at) / RFU PLEKHG5 (11743358_a_at) / Fold change /veh PLEKHG5 (11743358_a_at) / RFU ZSCAN30 (11745921_a_at) / Fold change /veh ZSCAN30 (11745921_a_at) / RFU CMKLR1 (11741424_a_at) / Fold change /veh CMKLR1 (11741424_a_at) / RFU LOC101060620 /// MAPK8IP1 (11723275_at) / Fold change /veh LOC101060620 /// MAPK8IP1 (11723275_at) / RFU SPTSSB (11747773_x_at) / Fold change /veh SPTSSB (11747773_x_at) / RFU PRSS12 (11739890_at) / Fold change /veh PRSS12 (11739890_at) / RFU BIN1 (11741810_x_at) / Fold change /veh BIN1 (11741810_x_at) / RFU WNT11 (11732464_a_at) / Fold change /veh WNT11 (11732464_a_at) / RFU C10orf10 (11716521_a_at) / Fold change /veh C10orf10 (11716521_a_at) / RFU C5orf56 (11738089_at) / Fold change /veh C5orf56 (11738089_at) / RFU CYB561 (11721691_x_at) / Fold change /veh CYB561 (11721691_x_at) / RFU ANKRD19P (11752326_a_at) / Fold change /veh ANKRD19P (11752326_a_at) / RFU OR2T12 /// OR2T33 /// OR2T8 (11738714_s_at) / Fold change /veh OR2T12 /// OR2T33 /// OR2T8 (11738714_s_at) / RFU VCAN (11748164_a_at) / Fold change /veh VCAN (11748164_a_at) / RFU JSRP1 (11732532_at) / Fold change /veh JSRP1 (11732532_at) / RFU KRTAP10-11 (11738290_x_at) / Fold change /veh KRTAP10-11 (11738290_x_at) / RFU MYO3A (11730013_a_at) / Fold change /veh MYO3A (11730013_a_at) / RFU EBF3 (11725865_a_at) / Fold change /veh EBF3 (11725865_a_at) / RFU CAMK2N1 (11719241_x_at) / Fold change /veh CAMK2N1 (11719241_x_at) / RFU C5orf56 (11738088_a_at) / Fold change /veh C5orf56 (11738088_a_at) / RFU OLFML3 (11715873_a_at) / Fold change /veh OLFML3 (11715873_a_at) / RFU LOC100653217 /// NTM (11731650_a_at) / Fold change /veh LOC100653217 /// NTM (11731650_a_at) / RFU MAPK11 (11762145_a_at) / Fold change /veh MAPK11 (11762145_a_at) / RFU FIZ1 (11724087_x_at) / Fold change /veh FIZ1 (11724087_x_at) / RFU OASL (11726364_x_at) / Fold change /veh OASL (11726364_x_at) / RFU SOX15 (11748057_x_at) / Fold change /veh SOX15 (11748057_x_at) / RFU CD79A (11719716_a_at) / Fold change /veh CD79A (11719716_a_at) / RFU HIST1H1D (11736915_at) / Fold change /veh HIST1H1D (11736915_at) / RFU CASKIN2 (11723855_a_at) / Fold change /veh CASKIN2 (11723855_a_at) / RFU LOC730098 (11760151_x_at) / Fold change /veh LOC730098 (11760151_x_at) / RFU OR4N2 (11742367_at) / Fold change /veh OR4N2 (11742367_at) / RFU PRRT2 (11749266_a_at) / Fold change /veh PRRT2 (11749266_a_at) / RFU SNX32 (11753110_a_at) / Fold change /veh SNX32 (11753110_a_at) / RFU CDHR5 (11726645_a_at) / Fold change /veh CDHR5 (11726645_a_at) / RFU RCAN1 (11760418_a_at) / Fold change /veh RCAN1 (11760418_a_at) / RFU FAM167A (11723789_a_at) / Fold change /veh FAM167A (11723789_a_at) / RFU FAM26E (11764081_at) / Fold change /veh FAM26E (11764081_at) / RFU ISYNA1 (11749810_s_at) / Fold change /veh ISYNA1 (11749810_s_at) / RFU ACY1 (11761880_at) / Fold change /veh ACY1 (11761880_at) / RFU 11764098_at / Fold change /veh 11764098_at / RFU SAMD14 (11745864_x_at) / Fold change /veh SAMD14 (11745864_x_at) / RFU NPB (11741838_a_at) / Fold change /veh NPB (11741838_a_at) / RFU TMPRSS6 (11731388_a_at) / Fold change /veh TMPRSS6 (11731388_a_at) / RFU KRTAP10-2 (11738614_at) / Fold change /veh KRTAP10-2 (11738614_at) / RFU ARHGAP8 /// PRR5-ARHGAP8 (11727945_x_at) / Fold change /veh ARHGAP8 /// PRR5-ARHGAP8 (11727945_x_at) / RFU KRTAP5-7 /// NADSYN1 (11734609_at) / Fold change /veh KRTAP5-7 /// NADSYN1 (11734609_at) / RFU RASL12 (11751679_a_at) / Fold change /veh RASL12 (11751679_a_at) / RFU CDKN2B (11736163_a_at) / Fold change /veh CDKN2B (11736163_a_at) / RFU PRF1 (11729649_at) / Fold change /veh PRF1 (11729649_at) / RFU, ZNF638 /// ZNF638-IT1 / Fold change vs veh, ZNF638 /// ZNF638-IT1 / RFU, PANK3 / Fold change vs veh, PANK3 / RFU, SH3YL1 / Fold change vs veh, SH3YL1 / RFU, ZEB2 / Fold change vs veh, ZEB2 / RFU, NRIP1 / Fold change vs veh, NRIP1 / RFU, PTTG1IP / Fold change vs veh, PTTG1IP / RFU, CAPN2 / Fold change vs veh, CAPN2 / RFU, MED14 / Fold change vs veh, MED14 / RFU, SNORA58 / Fold change vs veh, SNORA58 / RFU, C1orf63 / Fold change vs veh, C1orf63 / RFU, LRRFIP1 / Fold change vs veh, LRRFIP1 / RFU, NDUFAF7 / Fold change vs veh, NDUFAF7 / RFU, SLC12A2 / Fold change vs veh, SLC12A2 / RFU, IBTK / Fold change vs veh, IBTK / RFU, ESF1 / Fold change vs veh, ESF1 / Fold change vs veh, TMEM50B / RFU, TAOK1 / Fold change vs veh, TAOK1 / RFU, ACBD3 / Fold change vs veh, ACBD3 / RFU, TMA16 / Fold change vs veh, TMA16 / RFU, RWDD3 / Fold change vs veh, RWDD3 / RFU, BCAT1 / Fold change vs veh, BCAT1 / RFU, EDEM3 / Fold change vs veh, EDEM3 / RFU, TMEM33 / Fold change vs veh, TMEM33 / RFU, WDR75 / Fold change vs veh, WDR75 / RFU, AHCTF1 / Fold change vs veh, AHCTF1 / RFU, TFRC / Fold change vs veh, TFRC / RFU, ZDHHC17 / Fold change vs veh, ZDHHC17 / RFU, NOM1 / Fold change vs veh, NOM1 / RFU, ARL8B / Fold change vs veh, ARL8B / RFU, ZBTB11 / Fold change vs veh, ZBTB11 / RFU, TAMM41 / Fold change vs veh, TAMM41 / RFU, KIAA1704 /// LOC100996395 / Fold change vs veh, KIAA1704 /// LOC100996395 / RFU, ING1 / Fold change vs veh, ING1 / RFU, TRMT61B / Fold change vs veh, TRMT61B / RFU, FUBP3 / Fold change vs veh, FUBP3 / RFU, TP53 / Fold change vs veh, TP53 / RFU, TNKS2 / Fold change vs veh, TNKS2 / RFU, ZFP14 / Fold change vs veh, ZFP14 / RFU, ACTR2 / Fold change vs veh, ACTR2 / RFU, PPP3R1 / Fold change vs veh, PPP3R1 / RFU, PIK3R1 / Fold change vs veh, PIK3R1 / RFU, HNRNPA1 / Fold change vs veh, HNRNPA1 / RFU, RNF170 / Fold change vs veh, RNF170 / RFU, ZNF28 / Fold change vs veh, ZNF28 / RFU, RNGTT / Fold change vs veh, RNGTT / RFU, OGT / Fold change vs veh, OGT / RFU, BRD1 / Fold change vs veh, BRD1 / RFU, MARS / Fold change vs veh, MARS / RFU, ZNF655 / Fold change vs veh, ZNF655 / RFU, FAHD1 / Fold change vs veh, FAHD1 / RFU, BDP1 / Fold change vs veh, BDP1 / RFU, LRRCC1 / Fold change vs veh, LRRCC1 / RFU, ARID1A / Fold change vs veh, ARID1A / RFU, ZNF146 / Fold change vs veh, ZNF146 / RFU, ZNF330 / Fold change vs veh, ZNF330 / RFU, GPN3 / Fold change vs veh, GPN3 / RFU, C9orf123 / Fold change vs veh, C9orf123 / RFU, N4BP2L2 / Fold change vs veh, N4BP2L2 / RFU, ARFIP1 / Fold change vs veh, ARFIP1 / RFU, FAM179B / Fold change vs veh, FAM179B / RFU, BCL10 / Fold change vs veh, BCL10 / RFU, UHRF1BP1L / Fold change vs veh, UHRF1BP1L / RFU, BET1 / Fold change vs veh, BET1 / RFU, CNOT2 / Fold change vs veh, CNOT2 / RFU, ZNF268 / Fold change vs veh, ZNF268 / Fold change vs veh, ZNF507 / RFU, DGCR2 / Fold change vs veh, DGCR2 / RFU, WDSUB1 / Fold change vs veh, WDSUB1 / Fold change vs veh, HSP90B1 /// MIR3652 / RFU, ADSS / Fold change vs veh, ADSS / RFU, GK / Fold change vs veh, GK / RFU, ZNF148 / Fold change vs veh, ZNF148 / RFU, TAF9 / Fold change vs veh, TAF9 / RFU, SLC1A5 / Fold change vs veh, SLC1A5 / RFU, SLMO2 / Fold change vs veh, SLMO2 / RFU, ABCC4 / Fold change vs veh, ABCC4 / RFU, LOC101060439 /// RAP1B / Fold change vs veh, LOC101060439 /// RAP1B / RFU, RFX7 / Fold change vs veh, RFX7 / RFU, GTPBP10 / Fold change vs veh, GTPBP10 / RFU, CNEP1R1 / Fold change vs veh, CNEP1R1 / RFU, BIVM-ERCC5 /// ERCC5 / Fold change vs veh, BIVM-ERCC5 /// ERCC5 / RFU, ILF3 / Fold change vs veh, ILF3 / RFU 11762660_at / Fold change /veh 11762660_at / RFU VCAN (11757783_s_at) / Fold change /veh VCAN (11757783_s_at) / RFU DDX43 (11728927_at) / Fold change /veh DDX43 (11728927_at) / RFU KRT8 (11758188_x_at) / Fold change /veh KRT8 (11758188_x_at) / RFU NKD1 (11759106_at) / Fold change /veh NKD1 (11759106_at) / RFU SRD5A1 (11742802_a_at) / Fold change /veh SRD5A1 (11742802_a_at) / RFU TPSAB1 /// TPSB2 (11721975_s_at) / Fold change /veh TPSAB1 /// TPSB2 (11721975_s_at) / RFU GSTM3 (11746129_a_at) / Fold change /veh GSTM3 (11746129_a_at) / RFU IL23R (11737362_x_at) / Fold change /veh IL23R (11737362_x_at) / RFU TMEM51 (11727254_a_at) / Fold change /veh TMEM51 (11727254_a_at) / RFU PIWIL2 (11732686_x_at) / Fold change /veh PIWIL2 (11732686_x_at) / RFU ORM1 (11744905_x_at) / Fold change /veh ORM1 (11744905_x_at) / RFU CCDC152 (11743942_at) / Fold change /veh CCDC152 (11743942_at) / RFU ECM1 (11717891_a_at) / Fold change /veh ECM1 (11717891_a_at) / RFU IL23R (11748794_a_at) / Fold change /veh IL23R (11748794_a_at) / RFU TNFAIP8L3 (11732012_x_at) / Fold change /veh TNFAIP8L3 (11732012_x_at) / RFU MBOAT4 (11741988_at) / Fold change /veh MBOAT4 (11741988_at) / RFU 11764193_at / Fold change /veh 11764193_at / RFU TMEM53 (11763286_at) / Fold change /veh TMEM53 (11763286_at) / RFU MAGEB2 (11727129_at) / Fold change /veh MAGEB2 (11727129_at) / RFU TMEM200A (11744735_a_at) / Fold change /veh TMEM200A (11744735_a_at) / RFU CCDC152 (11751479_a_at) / Fold change /veh CCDC152 (11751479_a_at) / RFU FAM211A (11726209_a_at) / Fold change /veh FAM211A (11726209_a_at) / RFU RGS16 (11746705_a_at) / Fold change /veh RGS16 (11746705_a_at) / RFU VCAN (11755009_s_at) / Fold change /veh VCAN (11755009_s_at) / RFU RHOB (11743442_s_at) / Fold change /veh RHOB (11743442_s_at) / RFU RGS16 (11720943_a_at) / Fold change /veh RGS16 (11720943_a_at) / RFU RGS16 (11720944_at) / Fold change /veh RGS16 (11720944_at) / RFU, VPS4B / Fold change vs veh, VPS4B / RFU, CREB1 / Fold change vs veh, CREB1 / RFU, DNAJC13 / Fold change vs veh, DNAJC13 / RFU, GNAQ / Fold change vs veh, GNAQ / RFU, CDK5R1 / Fold change vs veh, CDK5R1 / RFU, ZRANB3 / Fold change vs veh, ZRANB3 / RFU, CUL4A / Fold change vs veh, CUL4A / RFU, CCNY / Fold change vs veh, CCNY / RFU, UFL1 / Fold change vs veh, UFL1 / RFU, COG3 / Fold change vs veh, COG3 / RFU, DIAPH2 / Fold change vs veh, DIAPH2 / RFU, SKA2 / Fold change vs veh, SKA2 / RFU, AFF3 / Fold change vs veh, AFF3 / RFU, LMF1 / Fold change vs veh, LMF1 / RFU, IPO11 / Fold change vs veh, IPO11 / RFU, DFFB / Fold change vs veh, DFFB / RFU, FOXP1 / Fold change vs veh, FOXP1 / RFU, CARD8 / Fold change vs veh, CARD8 / RFU, STRN3 / Fold change vs veh, STRN3 / RFU, ADK / Fold change vs veh, ADK / RFU, RASSF2 / Fold change vs veh, RASSF2 / RFU, WIPF1 / Fold change vs veh, WIPF1 / RFU, LARP1B / Fold change vs veh, LARP1B / RFU, RASA1 / Fold change vs veh, RASA1 / RFU, RB1 / Fold change vs veh, RB1 / RFU, PPFIA1 / Fold change vs veh, PPFIA1 / RFU, MAT2A / Fold change vs veh, MAT2A / RFU, CCT5 / Fold change vs veh, CCT5 / RFU, WDR92 / Fold change vs veh, WDR92 / RFU, CUX1 / Fold change vs veh, CUX1 / RFU, TTC7A / Fold change vs veh, TTC7A / RFU, TMEM135 / Fold change vs veh, TMEM135 / RFU, DEPTOR / Fold change vs veh, DEPTOR / RFU, CPM / Fold change vs veh, CPM / RFU, DNAJB6 / Fold change vs veh, DNAJB6 / RFU, CACNA2D3 / Fold change vs veh, CACNA2D3 / RFU, DTX4 / Fold change vs veh, DTX4 / RFU, TFCP2 / Fold change vs veh, TFCP2 / RFU, GMCL1 /// GMCL1P1 / Fold change vs veh, GMCL1 /// GMCL1P1 / RFU, AEBP2 / Fold change vs veh, AEBP2 / RFU, SNHG1 /// SNORD22 /// SNORD25 /// SNORD26 /// SNORD27 /// SNORD28 /// SNORD29 /// SNORD31 / Fold change vs veh, SNHG1 /// SNORD22 /// SNORD25 /// SNORD26 /// SNORD27 /// SNORD28 /// SNORD29 /// SNORD31 / Fold change (Aza/veh), C12orf56 (ProbeSet 11735607_a_at) / Fold change (ACY-1035/veh), C12orf56 (ProbeSet 11735607_a_at) / Fold change (Aza/veh), FGFR1OP (ProbeSet 11751329_s_at) / Fold change (ACY-1035/veh), FGFR1OP (ProbeSet 11751329_s_at) / Fold change (Aza/veh), VPS36 (ProbeSet 11739960_a_at) / Fold change (ACY-1035/veh), VPS36 (ProbeSet 11739960_a_at) / RFU SYPL1 (11715823_x_at) / Fold change /veh SYPL1 (11715823_x_at) / RFU IGFBP7 (11715501_s_at) / Fold change /veh IGFBP7 (11715501_s_at) / RFU REEP3 (11722064_at) / Fold change /veh REEP3 (11722064_at) / RFU IGLL1 (11728026_x_at) / Fold change /veh IGLL1 (11728026_x_at): dose or concentration left out as unconfirmed
Settings: MV-4-11 cells, 48 hours

With `Nc1ccc(-c2cccs2)cc1NC(=O)c1ccc2c(c1)cc(C1CC1)n2CCN1CCOCC1` [ACY-1035] the “RFU LRRC4B (11730491_at)” value was 28.30 RFU.
